Test results published in PubChem BioAssay AID2060508 (Molecular Pharmacology Branch, DTP, NCI, 2025).

Test system: 454973-116-R2-J3-PDC spheroids, viability, % test/control
Experiment: Anticancer human tumor 454973-116-R2-J3-PDC patient-derived pancreatic carcinoma cell line growth inhibition [GQUAD]
Settings: spheroids with HUVEC and MSC; for IC50: curve of first compound; for viability, T/C: stronger effect = lower value; active = viability on the fitted dose curve at most 10% of control; inactive = the rest
Method in brief: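 Tumor cells were grown as complex spheroids with HUVEC endothelial cells and mesenchymal stem cells as stroma. G-quadruplex stabilizers were combined with targeted agents over half-log dilutions from near the clinical Cmax, or from 10 microM.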

[1] = second compound 0.0316 µM, first compound 0.0316 µM
[2] = second compound 0.0316 µM, first compound 0.1 µM
[3] = second compound 0.0316 µM, first compound 0.316 µM
[4] = second compound 0.0316 µM, first compound 1 µM
[5] = second compound 0.0316 µM, first compound 3.16 µM
[6] = second compound 0.0316 µM, first compound 10 µM
[7] = second compound 0.1 µM, first compound 0.0316 µM
[8] = second compound 0.1 µM, first compound 0.1 µM
[9] = second compound 0.1 µM, first compound 0.316 µM
[10] = second compound 0.1 µM, first compound 1 µM
[11] = second compound 0.1 µM, first compound 3.16 µM
[12] = second compound 0.1 µM, first compound 10 µM
[13] = second compound 0.316 µM, first compound 0.0316 µM
[14] = second compound 0.316 µM, first compound 0.1 µM
[15] = second compound 0.316 µM, first compound 0.316 µM
[16] = second compound 0.316 µM, first compound 1 µM
[17] = second compound 0.316 µM, first compound 3.16 µM
[18] = second compound 0.316 µM, first compound 10 µM
[19] = second compound 1 µM, first compound 0.0316 µM
[20] = second compound 1 µM, first compound 0.1 µM
[21] = second compound 1 µM, first compound 0.316 µM
[22] = second compound 1 µM, first compound 1 µM
[23] = second compound 1 µM, first compound 3.16 µM
[24] = second compound 1 µM, first compound 10 µM
[25] = second compound 3.16 µM, first compound 0.0316 µM
[26] = second compound 3.16 µM, first compound 0.1 µM
[27] = second compound 3.16 µM, first compound 0.316 µM
[28] = second compound 3.16 µM, first compound 1 µM
[29] = second compound 3.16 µM, first compound 3.16 µM
[30] = second compound 3.16 µM, first compound 10 µM
[31] = second compound 10 µM, first compound 0.0316 µM
[32] = second compound 10 µM, first compound 0.1 µM
[33] = second compound 10 µM, first compound 0.316 µM
[34] = second compound 10 µM, first compound 1 µM
[35] = second compound 10 µM, first compound 3.16 µM
[36] = second compound 10 µM, first compound 10 µM
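Also: spheroids exposed to compounds for seven days.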
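For viability, T/C in this document: 100% = DMSO vehicle control viability.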

O=C(NO)c1cnc(N2CCN(S(=O)(=O)c3ccc4ccccc4c3)CC2)nc1 + Cc1[nH]c2ccc(F)cc2c1-c1nc2c3cccnc3c3ncccc3c2[nH]1
active: viability, T/C [4] 2.53% | viability, T/C [5] 0.14% | viability, T/C [6] 0.29% | viability, T/C [10] 4.86% | viability, T/C [11] 0.14% | viability, T/C [12] 0.64% | viability, T/C [17] 0.1% | viability, T/C [18] 1.14% | viability, T/C [22] 8.33% | viability, T/C [23] 0.1% | viability, T/C [24] 0.86% | viability, T/C [29] 0.16% | viability, T/C [30] 0.16% | viability, T/C [35] 0.22% | viability, T/C [36] 0.21%
0.476 µM: IC50 (second compound 1 µM)
0.221 µM: IC50 (second compound 0.0316 µM)
0.464 µM: IC50 (second compound 3.16 µM)
0.533 µM: IC50 (second compound 10 µM)
inactive: viability, T/C [1] 108% | viability, T/C [2] 84.8% | viability, T/C [3] 35.3% | viability, T/C [7] 108% | viability, T/C [8] 104% | viability, T/C [9] 55.7% | viability, T/C [13] 121% | viability, T/C [14] 96.2% | viability, T/C [15] 62.1% | viability, T/C [16] 10% | viability, T/C [19] 89.6% | viability, T/C [20] 92.1% | viability, T/C [21] 73% | viability, T/C [25] 105% | viability, T/C [26] 93.7% | viability, T/C [27] 66.9% | viability, T/C [28] 18.1% | viability, T/C [31] 93.6% | viability, T/C [32] 90.2% | viability, T/C [33] 76.9% | viability, T/C [34] 17.7%
0.36 µM: IC50 (second compound 0.1 µM)
0.384 µM: IC50 (second compound 0.316 µM)

CC1COCCN1c1cc(-c2ccnn2C)c2ccnc(-c3ccn[nH]3)c2n1 (stereo not drawn) + Cc1cnc(CNC(=O)c2c(=O)c3ccc(N4CCCN(C)CC4)nc3n3c2sc2ccccc23)cn1
inactive: viability, T/C [1] 58.3% | viability, T/C [2] 26.2% | viability, T/C [3] 17.6% | viability, T/C [4] 18.5% | viability, T/C [5] 21.3% | viability, T/C [6] 21.7% | viability, T/C [7] 35.7% | viability, T/C [8] 23.1% | viability, T/C [9] 18.9% | viability, T/C [10] 14.7% | viability, T/C [11] 18.3% | viability, T/C [12] 23.3% | viability, T/C [13] 33.7% | viability, T/C [14] 20% | viability, T/C [15] 18.6% | viability, T/C [16] 16.8% | viability, T/C [17] 19.4% | viability, T/C [18] 21.6% | viability, T/C [19] 39.7% | viability, T/C [20] 27.9% | viability, T/C [21] 27% | viability, T/C [22] 24.2% | viability, T/C [23] 22.6% | viability, T/C [24] 19.5% | viability, T/C [25] 40.3% | viability, T/C [26] 34.5% | viability, T/C [27] 31.5% | viability, T/C [28] 27.2% | viability, T/C [29] 20.2% | viability, T/C [30] 20.3%
active: viability, T/C [31] 0.13% | viability, T/C [32] 0.16% | viability, T/C [33] 2.37% | viability, T/C [34] 0.14% | viability, T/C [35] 0.16% | viability, T/C [36] 0.17%
< 0.0316 µM: IC50 (second compound 0.1 µM) | IC50 (second compound 0.316 µM) | IC50 (second compound 1 µM) | IC50 (second compound 3.16 µM) | IC50 (second compound 10 µM)
0.0423 µM: IC50 (second compound 0.0316 µM)

CC1COCCN1c1cc(C2(S(C)(=N)=O)CC2)nc(-c2ccnc3[nH]ccc23)n1 (stereo not drawn) + Cc1cnc(CNC(=O)c2c(=O)c3ccc(N4CCCN(C)CC4)nc3n3c2sc2ccccc23)cn1
< 0.0316 µM: IC50 (second compound 10 µM)
1.06 µM: IC50 (second compound 3.16 µM)
0.957 µM: IC50 (second compound 0.316 µM)
inactive: viability, T/C [1] 104% | viability, T/C [2] 95.5% | viability, T/C [3] 96.6% | viability, T/C [4] 79.2% | viability, T/C [5] 43.2% | viability, T/C [6] 21.6% | viability, T/C [7] 90.9% | viability, T/C [8] 81.9% | viability, T/C [9] 74.2% | viability, T/C [10] 58.9% | viability, T/C [11] 33% | viability, T/C [12] 23.5% | viability, T/C [13] 70.8% | viability, T/C [14] 73% | viability, T/C [15] 64.6% | viability, T/C [16] 50.5% | viability, T/C [17] 30.3% | viability, T/C [18] 27.8% | viability, T/C [19] 62.9% | viability, T/C [20] 67.2% | viability, T/C [21] 70% | viability, T/C [22] 56.6% | viability, T/C [23] 36.1% | viability, T/C [24] 38% | viability, T/C [25] 65.9% | viability, T/C [26] 66.1% | viability, T/C [27] 59.4% | viability, T/C [28] 46.9% | viability, T/C [29] 42% | viability, T/C [30] 38.4%
1.47 µM: IC50 (second compound 1 µM)
1.42 µM: IC50 (second compound 0.1 µM)
2.56 µM: IC50 (second compound 0.0316 µM)
active: viability, T/C [31] 0.26% | viability, T/C [32] 0.49% | viability, T/C [33] 0.34% | viability, T/C [34] 0.88% | viability, T/C [35] 0.61% | viability, T/C [36] 0.35%

COc1ccc([C@@H](O)c2cc(-c3ncnc4cc(N5CCOCC5)ccc34)c(F)cc2Cl)nn1 + Cc1cnc(CNC(=O)c2c(=O)c3ccc(N4CCCN(C)CC4)nc3n3c2sc2ccccc23)cn1
0.578 µM: IC50 (second compound 3.16 µM)
0.814 µM: IC50 (second compound 0.0316 µM)
0.416 µM: IC50 (second compound 0.316 µM)
< 0.0316 µM: IC50 (second compound 10 µM)
0.53 µM: IC50 (second compound 1 µM)
inactive: viability, T/C [1] 104% | viability, T/C [2] 88.2% | viability, T/C [3] 72.3% | viability, T/C [4] 43.9% | viability, T/C [5] 34% | viability, T/C [6] 33.9% | viability, T/C [7] 83.5% | viability, T/C [8] 71.3% | viability, T/C [9] 46% | viability, T/C [10] 35.3% | viability, T/C [11] 32.1% | viability, T/C [12] 30.1% | viability, T/C [13] 70.8% | viability, T/C [14] 66.3% | viability, T/C [15] 49.6% | viability, T/C [16] 42% | viability, T/C [17] 40.1% | viability, T/C [18] 30.8% | viability, T/C [19] 68.2% | viability, T/C [20] 59.2% | viability, T/C [21] 55.1% | viability, T/C [22] 43.7% | viability, T/C [23] 39.8% | viability, T/C [24] 28.4% | viability, T/C [25] 69% | viability, T/C [26] 54.3% | viability, T/C [27] 61.2% | viability, T/C [28] 41.5% | viability, T/C [29] 39.7% | viability, T/C [30] 27.3%
active: viability, T/C [31] 0.28% | viability, T/C [32] 0.73% | viability, T/C [33] 0.4% | viability, T/C [34] 0.39% | viability, T/C [35] 0.33% | viability, T/C [36] 0.28%
0.269 µM: IC50 (second compound 0.1 µM)
